Legend:
[1] = target: T1, M-type K+ (KM) channel, KCNQ2 (KV7.2)/KCNQ3 (KV7.3) (Rattus norvegicus, UniProt O88943+O88944); assay: whole-cell patch clamp of native IK(M), plus cell-attached single KM channel recordings in GH3 cells; type: cell-based
T1 construct: native channel in pituitary GH3 cells; with KCNQ3 (KV7.3)

[2] = target: T2, erg-mediated K+ channel (Kerg, KV11) (Rattus norvegicus, UniProt O08962); assay: whole-cell patch clamp of native IK(erg) in GH3 cells; type: cell-based
T2 construct: gene Kcnh2; native channel in pituitary GH3 cells
T2 sequence (O08962 1-1163): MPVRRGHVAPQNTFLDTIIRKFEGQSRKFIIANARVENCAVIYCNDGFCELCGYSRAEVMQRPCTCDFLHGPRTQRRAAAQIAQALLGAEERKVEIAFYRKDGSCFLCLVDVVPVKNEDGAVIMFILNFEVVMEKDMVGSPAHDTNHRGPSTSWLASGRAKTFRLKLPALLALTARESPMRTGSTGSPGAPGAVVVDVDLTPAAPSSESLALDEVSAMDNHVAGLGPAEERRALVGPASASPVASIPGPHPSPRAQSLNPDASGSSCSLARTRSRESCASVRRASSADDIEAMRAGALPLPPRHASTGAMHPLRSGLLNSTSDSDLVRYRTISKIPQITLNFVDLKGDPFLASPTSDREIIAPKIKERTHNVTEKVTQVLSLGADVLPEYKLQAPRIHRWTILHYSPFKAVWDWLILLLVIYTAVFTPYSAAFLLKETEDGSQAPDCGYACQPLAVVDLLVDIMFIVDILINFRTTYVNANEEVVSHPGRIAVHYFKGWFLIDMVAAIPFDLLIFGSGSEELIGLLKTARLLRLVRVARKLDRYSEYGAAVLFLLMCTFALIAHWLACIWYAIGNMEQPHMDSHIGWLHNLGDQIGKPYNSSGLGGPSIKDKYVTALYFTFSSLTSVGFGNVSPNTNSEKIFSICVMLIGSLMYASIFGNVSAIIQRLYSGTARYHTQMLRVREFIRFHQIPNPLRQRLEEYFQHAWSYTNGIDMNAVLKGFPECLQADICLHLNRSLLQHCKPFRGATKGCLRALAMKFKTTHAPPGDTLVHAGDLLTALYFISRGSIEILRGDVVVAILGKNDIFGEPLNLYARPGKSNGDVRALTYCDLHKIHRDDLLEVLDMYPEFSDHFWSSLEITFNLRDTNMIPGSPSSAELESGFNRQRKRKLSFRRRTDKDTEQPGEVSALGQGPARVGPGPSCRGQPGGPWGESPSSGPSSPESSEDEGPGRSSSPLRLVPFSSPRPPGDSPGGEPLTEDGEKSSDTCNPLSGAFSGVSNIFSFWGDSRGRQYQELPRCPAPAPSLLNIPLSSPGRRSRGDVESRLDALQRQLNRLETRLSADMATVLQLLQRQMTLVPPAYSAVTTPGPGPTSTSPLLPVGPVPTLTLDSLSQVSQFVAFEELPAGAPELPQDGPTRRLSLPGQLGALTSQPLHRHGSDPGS

T1 sequence (O88943 whole entry): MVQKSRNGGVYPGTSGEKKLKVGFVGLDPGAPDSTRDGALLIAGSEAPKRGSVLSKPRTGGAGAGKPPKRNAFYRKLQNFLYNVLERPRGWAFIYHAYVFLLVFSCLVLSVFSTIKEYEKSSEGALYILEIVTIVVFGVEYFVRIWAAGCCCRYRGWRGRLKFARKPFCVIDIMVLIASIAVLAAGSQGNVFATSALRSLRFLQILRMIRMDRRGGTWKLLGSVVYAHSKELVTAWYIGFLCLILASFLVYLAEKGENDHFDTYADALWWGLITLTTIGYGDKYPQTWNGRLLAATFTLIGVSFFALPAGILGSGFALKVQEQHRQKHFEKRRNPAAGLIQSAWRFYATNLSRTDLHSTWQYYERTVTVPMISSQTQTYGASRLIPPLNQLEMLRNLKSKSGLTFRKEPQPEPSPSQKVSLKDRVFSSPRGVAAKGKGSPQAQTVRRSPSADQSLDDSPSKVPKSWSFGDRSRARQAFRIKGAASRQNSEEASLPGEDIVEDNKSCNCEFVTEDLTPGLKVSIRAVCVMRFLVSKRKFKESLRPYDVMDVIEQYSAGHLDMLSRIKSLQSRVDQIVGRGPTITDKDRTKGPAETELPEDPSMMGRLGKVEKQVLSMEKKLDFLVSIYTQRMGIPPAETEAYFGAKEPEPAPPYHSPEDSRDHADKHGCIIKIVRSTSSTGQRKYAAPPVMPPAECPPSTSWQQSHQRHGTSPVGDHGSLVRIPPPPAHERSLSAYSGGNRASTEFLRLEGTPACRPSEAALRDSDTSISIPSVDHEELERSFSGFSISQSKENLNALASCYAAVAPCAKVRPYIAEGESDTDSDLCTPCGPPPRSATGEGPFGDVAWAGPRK
T1 sequence (O88944 whole entry): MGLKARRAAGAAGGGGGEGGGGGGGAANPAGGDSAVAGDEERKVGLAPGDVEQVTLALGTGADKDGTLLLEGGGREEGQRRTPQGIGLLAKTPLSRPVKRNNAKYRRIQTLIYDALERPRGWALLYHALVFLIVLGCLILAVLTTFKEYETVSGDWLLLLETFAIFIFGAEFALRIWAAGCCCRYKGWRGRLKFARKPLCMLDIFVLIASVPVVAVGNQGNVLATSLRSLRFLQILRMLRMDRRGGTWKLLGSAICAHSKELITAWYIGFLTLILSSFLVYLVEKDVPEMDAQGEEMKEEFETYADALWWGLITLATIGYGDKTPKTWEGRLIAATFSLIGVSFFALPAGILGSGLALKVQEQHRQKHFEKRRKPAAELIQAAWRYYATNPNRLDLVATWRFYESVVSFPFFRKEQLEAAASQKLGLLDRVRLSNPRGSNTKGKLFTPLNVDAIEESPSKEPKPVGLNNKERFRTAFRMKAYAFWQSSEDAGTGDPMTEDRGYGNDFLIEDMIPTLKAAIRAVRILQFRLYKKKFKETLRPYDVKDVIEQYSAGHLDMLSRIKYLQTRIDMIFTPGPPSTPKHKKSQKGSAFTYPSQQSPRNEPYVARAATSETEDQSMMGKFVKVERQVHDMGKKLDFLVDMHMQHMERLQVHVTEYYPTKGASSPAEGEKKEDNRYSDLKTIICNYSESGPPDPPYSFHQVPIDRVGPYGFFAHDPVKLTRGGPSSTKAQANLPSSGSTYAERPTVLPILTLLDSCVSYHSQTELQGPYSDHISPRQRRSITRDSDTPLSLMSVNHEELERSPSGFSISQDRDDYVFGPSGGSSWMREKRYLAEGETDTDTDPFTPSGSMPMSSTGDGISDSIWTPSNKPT

## CC(C)NCC(O)COc1ccc(COCCOC(C)C)cc1 (racemic) [BIS, 1-(propan-2-ylamino)-3-[4-(2-propan-2-yloxyethoxymethyl)phenoxy]propan-2-ol]
[1]
  IC50: 1.21 µM
[2]
  IC50: 6.42 µM
